The source of these data is US12599560B2, “Lipids and lipid nanoparticle formulations” (Longuide Biopharma Corporation, priority 2023, dated 2026).

The test system of one data set is mice. The data set can be described thus: In vivo delivery of FLuc-mRNA lipid nanoparticle preparations in mice (IVIS imaging). Details: In vivo IVIS / In vivo IVIS (liver) / In vivo IVIS (spleen): unit not given here. In outline:
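FLuc-mRNA LNPs given intramuscularly into thigh rectus femoris or intravenously via tail vein, about 75 μL per mouse, 3 mice. D-Luciferin (200 μL, 15 mg/mL) injected i.p. 10–15 min before IVIS imaging at set times after dosing.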

Data set [1] in a line: Nucleic acid encapsulation efficiency by fluorescence (RiboGreen). The class given is physicochemical. The method, then: The nucleic acid encapsulation rate of the nucleic acids lipid nanoparticle formulations obtained in steps 6, 7, and 8 can be determined by fluorescence methods, such as using the Quant-iT™ RiboGreen RNA Quantification Kit (Thermo Fisher Scientific). Take the RiboGreen RNA Quantification Kit as an example: Configure the low-range working solution and mRNA standard solution according to the instructions. Take 3 μL of the nucleic acid lipid nanoparticle solution obtained in step 6, add 297 μL of the Tris-EDTA buffer (TE buffer) provided with the kit, mix well, and then suck up 100 μL of it into the black-bottomed ninety-six-well plate, and then add 100 μL of the RiboGreen low-range detection working solution. Add 100 μL of different concentrations of mRNA standard solution into the black bottom 96-well plate, and add 100 μL of RiboGreen low-range detection working solution. After gently blowing and mixing well, incubate for 5 minutes away from light, and then immediately detect and record the fluorescence signal intensity using a multifunctional enzyme labeling instrument (BMG LABTECH, FLUOstar Omega). The free mRNA content not encapsulated by the lipid nanoparticles was calculated by standard curve fitting and calculation, and then divided by the total amount of mRNA in the wells detected to find the nucleic acid encapsulation rate of this nucleic acid lipid nanoparticle preparation.

A further data set deals with A549 cells. The data set can be described thus: Cytotoxicity assay (CCK-8), A549. The class given is cell-based. As for the experimental part: A549 cells were digested and collected the day before treatment and the cell concentration was adjusted to 2*10^5 cells/mL, 200 μL cell culture medium with a concentration of 2*10^5 cells/mL was added to the 96-well plate, resulting in approximately 4*10^4 cells per well in the 96-well plate. Digested and collected DC2.4 cells and adjusted the cell concentration to 1*10^5 cells/mL, added 200 μL cell culture medium with a concentration of 1*10^5 cells/mL to the 96-well plate, so that the number of cells per well in the 96-well plate is approximately 2*10^4. The cells were incubated in a cell culture incubator (Esco Micro Pte Ltd, Singapore, CLM-170B-8-NF) at 37° C. 5% CO2 for 24 h.
On the day of cell treatment, the medium (Thermo Fisher Scientific) was aspirated from the 96-well plate, 200 μL of PBS was added to each well to rinse the cells and then the PBS (Thermo Fisher Scientific) was removed, and 180 μL of opti-MEM (Thermo Fisher Scientific) was added to each well of the treatment group.
Different volumes of the preparation were taken and diluted by adding the buffer used for the preparation or the buffer used for dialysis, and four dosing concentrations were prepared for each preparation, and 20 μL of the diluted nanopreparation was added to each well of a 96-well plate (3 replicate wells for each concentration), and the dosing concentrations of the preparation were about 50 ng mRNA/well, 100 ng mRNA/well, 200 ng mRNA/well, and 300 ng mRNA/well, respectively.
The 96-well cell culture plate was placed in a cell culture incubator and incubated at 37° C. 5% CO2 for 4 h. The medium was sucked up, and 200 μL of DMEM complete medium was added to each well and incubated for 20 h for detection.
Diluted CCK-8 detection reagent (Shanghai Beyotime Biotechnology Co., Ltd.) masterbatch (900 μL complete medium+100 μL CCK-8 detection reagent) with DMEM complete medium at 9:1 to prepare CCK-8 working solution.
Take out the 96-well cell culture plate and removed the supernatant. Before detection, the 96-well plate was added with 100 μL CCK-8 working solution, incubated in the cell culture incubator at 37° C. 5% CO2 for 2 h, and analyzed by plate reader. The cell viability was calculated to reflect the cytotoxicity.

For `CCCCCCCCCCCCOC(=O)C(O)CN(CCCN1CCN(CCCN(CC(O)C(=O)OCCCCCCCCCCCC)CC(O)C(=O)OCCCCCCCCCCCC)CC1)CC(O)C(=O)OCCCCCCCCCCCC` (stereo not drawn) [Compound L0191], the “In vivo IVIS” value in the data set on mice (Table 2, IM, whole body scan) is reported as 8.97 × 10^7; in the data set with mice (Table 4, IM), 2.12 × 10^7; with mice (Table 4, IV), 9.64 × 10^8. For the same molecule, in the data set with mice (Table 2, IV, liver), the “In vivo IVIS (liver)” value is 2.77 × 10^8. In the data set with mice (Table 2, IV, spleen), the “In vivo IVIS (spleen)” value was 1.03 × 10^8. The “in vivo delivery efficiency as compared to the benchmark compound SM102” value in the data set on mice (certain formulations, Table 2) is listed as “superior in vivo delivery efficiency”. Besides, the “encapsulation efficiency (in words)” value in data set [1] (all tested formulations) is on record as “high”. Moreover, the encapsulation efficiency in data set [1] (formulation No. 1, molar ratio 1.50:20:33.50:45.00) is given as 96.26%; in data set [1] (formulation No. 2, molar ratio 1.50:11.50:38.50:48.50) it was 97.92%. In addition, the “cellular toxicity (in words)” value in the data set with A549 cells (all tested formulations, even at high doses, e.g., 300 ng/well) was “low to no cellular toxicity”. The “A549 cellular tox (% cells alive)” value amounted to 103.42% in the data set with A549 cells (formulation No. 1, 50 ng/well); 105.39% in the data set with A549 cells (formulation No. 1, 100 ng/well); 103.90% in the data set with A549 cells (formulation No. 1, 200 ng/well); 103.50% in the data set on A549 cells (formulation No. 1, 300 ng/well); 103.82% in the data set with A549 cells (formulation No. 2, 50 ng/well); 105.86% with A549 cells (formulation No. 2, 100 ng/well). Also, the “A549 cellular tox (% cells alive)” value with A549 cells (formulation No. 2, 200 ng/well) was determined as 109.06%; in the data set with A549 cells (formulation No. 2, 300 ng/well), 104.35%.
